Values after ≈ are worked out from the molar mass of the structure shown. Like-named read-outs stand apart in the source and are kept apart here. Bounds are passed on as bounds.

Experimental findings from PMC9284121, “Florfenicol-Polyarginine Conjugates Exhibit Promising Antibacterial Activity Against Resistant Strains” (Frontiers in Chemistry, 2022) are described below.

For one experiment, the system named is S. aureus (ATCC 292130). Briefly: microbe, parasite or virus in culture. The experiment is classed as cell-based, Staphylococcus aureus.
Experiment [1] concerns florfenicol resistant E. coli clinical strain 2019XJ20. Briefly: microbe, parasite or virus in culture. The experiment is classed as cell-based, Escherichia coli. On the procedure:
(§1) All the florfenicol-polyarginine conjugates were tested against Gram-positive and Gram-negative bacteria, including MRSA (ATCC 43300), S. aureus (ATCC 25923), E. coli (ATCC 25922), clinical strains of E. coli (2019XJ06, 2019XJ25, 2018XJ108, 2018XJ105, 2018XJ30) and clinical strains of florfenicol resistant E. coli (2017XJ30, 2019XJ20).
(§2) Gram-negative E. coli (ATCC 25922), clinical strains of E. coli (2019XJ06, 2019XJ25, 2018XJ108, 2018XJ105, 2018XJ30) and clinical strains of florfenicol resistant E. coli (2017XJ30, 2019XJ20) and Gram-positive MRSA (ATCC 43300) and S. aureus (ATCC 25923) were maintained in 50% glycerol at −80°C up to the time of use. The bacterial strains were cultured in Muller-Hinton broth (Guangdong Huan Kai Microbial Sci. &Tech. Co., Ltd. in China) media. Mueller-Hinton agar (Guangdong Huan Kai Microbial Sci. & Tech. Co., Ltd. in China) was used as growth medium in solid media.
(§3) CLSI guidelines were followed for determining MICs of all florfenicol-polyarginine conjugates by the broth microdilution method. The required bacterial (E. coli, S. aureus and MRSA) single colony was inoculated into Muller-Hinton broth (MHB) and cultured for 4–6 h. And then, the bacteria were adjusted to 10^6 CFU/ml in cultures. All compounds were prepared into a stock solution at a concentration of 0.1 mol/L with DMSO. The stock solutions were then diluted to required concentration (100, 50, 25, 12.5, 6.25, 3.125, 1.56, 0.78, 0.39 μmol/L) with MHB media. Subsequently, a 96 well plate was filled with these dilutions and 10^6 CFU/ml bacterial suspension. The diluted compounds of different concentrations (100 µl) were first added to 96 well plate, and then 100 µl bacterial dilutions (10^6 CFU/ml) was added. The negative and positive controls were 200 µl of MHB media and 100 µl of bacterial suspension combined with 100 µl of MHB media, respectively. The experiment of each compound was repeated three times, and each experiment was at least twice repeated. The 96 well plates were incubated at 37°C for 16–24 h. MIC indicated antibacterial activity. Florfenicol was used as a control drug.

Experiment [2] concerns E. coli clinical strain 2019XJ06. Briefly: microbe, parasite or virus in culture. The experiment is classed as cell-based, Escherichia coli. On the procedure:
as §1, §2, §3

The subject of experiment [3] is E. coli clinical strain 2019XJ25. Briefly: microbe, parasite or virus in culture. The experiment is classed as cell-based, Escherichia coli. How it is done:
as §1, §2, §3

A further experiment has as its system E.coli (ATCC 25922). The experiment is described as follows: microbe, parasite or virus in culture. It counts as cell-based, Escherichia coli. How it is done:
as §1, §2, §3

For experiment [4], the system named is florfenicol resistant E. coli clinical strain 2017XJ30. Briefly: microbe, parasite or virus in culture. The experiment is classed as cell-based, Escherichia coli. How it is done: as §1, §2, §3
In experiment [5] the test system is E. coli clinical strain 2018XJ108. The experiment is described as follows: microbe, parasite or virus in culture. The experiment is classed as cell-based, Escherichia coli. How it is done:
as §1, §2, §3

Experiment [6] concerns E. coli clinical strain 2018XJ105. Briefly: microbe, parasite or virus in culture. It counts as cell-based, Escherichia coli. On the procedure: as §1, §2, §3
The subject of experiment [7] is E. coli clinical strain 2018XJ30. Briefly: microbe, parasite or virus in culture. The experiment is classed as cell-based, Escherichia coli. On the procedure: as §1, §2, §3
For another experiment, the system named is E. coli. Briefly: Propensity of bacterial resistance development (serial passage at 0.5 MIC). It counts as cell-based, Escherichia coli. How it is done: It is crucial to evaluate the potential emergence of resistance from these compounds. […] The process was repeated for 16 passages. […] However, E. coli became resistant to FFC after only a few days. Therefore, these conjugates can be to combat drug-resistant bacteria.
Compound E6 was used to evaluate the tendency of developing bacterial resistance towards the florfenicol-polyarginine conjugates. The control antibiotic florfenicol was chosen for E. coli. MIC of E6 and florfenicol for 24 h were determined against E. coli., and then 0.5 MIC of E6 and florfenicol was challenged repeatedly against E. coli. After the initial MIC experiment, serial passage was investigated by transferring the growing bacterial suspension at sub-MIC of the compounds (MIC/2) and MIC in every passage was determined again. The process was repeated for 16 passages. The MICs for E6 and florfenicol corresponding to days were draw into figure to determine the propensity of bacterial resistance development.

In the next experiment the test system is MRSA (ATCC 43300). The experiment is described as follows: microbe, parasite or virus in culture. The experiment is classed as cell-based, methicillin-resistant S. aureus. On the procedure:
as §1, §2, §3

Experiment [8] concerns 10 strains tested (E. coli, S. aureus, MRSA, clinical E. coli strains). Briefly: microbe, parasite or virus in culture. It counts as cell-based. On the procedure: as §1, §2, §3
[9] abbreviates: Staphylococcus aureus, ATCC292130, S. aureus (ATCC 292130), MHB, read-out: MIC.
[10] abbreviates: Escherichia coli, florfenicol resistant E. coli 2019XJ20, MHB, read-out: MIC.
[11] abbreviates: Escherichia coli, clinical E. coli 2019XJ06, MHB, read-out: MIC.
Where [12] appears, read: Escherichia coli, clinical E. coli 2019XJ25, MHB, read-out: MIC.
Setting [13] is: Escherichia coli, ATCC25922, E.coli (ATCC 25922), MHB, read-out: MIC.
The mark [14] stands for this setting: Escherichia coli, florfenicol resistant E. coli 2017XJ30, MHB, read-out: MIC.
Where [15] appears, read: Escherichia coli, clinical E. coli 2018XJ108, MHB, read-out: MIC.
[16] abbreviates: Escherichia coli, clinical E. coli 2018XJ105, MHB, read-out: MIC.
Where [17] appears, read: Escherichia coli, clinical E. coli 2018XJ30, MHB, read-out: MIC.
Setting [18] is: Staphylococcus aureus, MRSA (ATCC 43300), MHB, read-out: MIC.
The mark [19] stands for this setting: Escherichia coli, against the 10 strains tested, read-out: MIC.

In the case of `CS(=O)(=O)c1ccc([C@@H](O)[C@@H](CF)NC(=O)C(Cl)Cl)cc1` [Florfenicol], the MIC in the experiment with S. aureus (ATCC 292130) (setting [9]) was 6.25 µM (≈ 2.24 µg/mL); in experiment [1] (setting [10]), greater than 100 µM; in experiment [2] (setting [11]), 6.25 µM (≈ 2.24 µg/mL); in [3] (setting [12]), 6.25 µM (≈ 2.24 µg/mL); with E.coli (ATCC 25922) (setting [13]) it was 6.25 µM (≈ 2.24 µg/mL); in experiment [4] (setting [14]), greater than 100 µM. Also, the MIC (in experiment [5] (setting [15]); in [6] (setting [16]); in experiment [7] (setting [17]); in the experiment with MRSA (ATCC 43300) (setting [18])) was 6.25 µM (≈ 2.24 µg/mL) throughout. The “change of MIC after 16 passages” value in the experiment with E. coli turned out to be 2 fold.

Consider `CS(=O)(=O)c1ccc([C@@H](OC(=O)CCC(=O)O)[C@@H](CF)NC(=O)C(Cl)Cl)cc1` [Compound C1, florfenicol succinate], for which the MIC (in the experiment on S. aureus (ATCC 292130) (setting [9]); in experiment [1] (setting [10]); in experiment [2] (setting [11]); in [3] (setting [12]); in the experiment with E.coli (ATCC 25922) (setting [13]); in [4] (setting [14])) was greater than 100 µM in each case. Moreover, the MIC (in experiment [5] (setting [15]); in experiment [6] (setting [16]); in experiment [7] (setting [17]); in [8] (setting [19]); with MRSA (ATCC 43300) (setting [18])) was greater than 100 µM throughout.

As to `CS(=O)(=O)c1ccc([C@@H](OC(=O)CCCCC(=O)O)[C@@H](CF)NC(=O)C(Cl)Cl)cc1` [Compound C3], the MIC (with S. aureus (ATCC 292130) (setting [9]); in experiment [1] (setting [10]); in [2] (setting [11]); in experiment [3] (setting [12]); with E.coli (ATCC 25922) (setting [13]); in [4] (setting [14])) was greater than 100 µM each time. Besides, the MIC (in [5] (setting [15]); in experiment [6] (setting [16]); in experiment [7] (setting [17]); in [8] (setting [19]); with MRSA (ATCC 43300) (setting [18])) was greater than 100 µM in each case.

Turning to `CS(=O)(=O)c1ccc([C@@H](OC(=O)CCCC(=O)O)[C@@H](CF)NC(=O)C(Cl)Cl)cc1` [Compound C2, florfenicol glutarate], the MIC (in the experiment on S. aureus (ATCC 292130) (setting [9]); in experiment [1] (setting [10]); in experiment [2] (setting [11]); in experiment [3] (setting [12]); in the experiment with E.coli (ATCC 25922) (setting [13]); in experiment [4] (setting [14])) was greater than 100 µM each time. Further, the MIC (in experiment [5] (setting [15]); in [6] (setting [16]); in [7] (setting [17]); in experiment [8] (setting [19]); with MRSA (ATCC 43300) (setting [18])) was greater than 100 µM each time.

In the case of `N=C(N)NCCC[C@H](NC(=O)[C@H](CCCNC(=N)N)NC(=O)[C@H](CCCNC(=N)N)NC(=O)[C@H](CCCNC(=N)N)NC(=O)[C@H](CCCNC(=N)N)NC(=O)[C@@H](N)CCCNC(=N)N)C(N)=O` [Compound D5], the MIC against S. aureus (ATCC 292130) (ATCC 292130) turned out to be 50 µM (≈ 47.7 µg/mL); in experiment [1] (florfenicol resistant clinical strain 2019XJ20), 100 µM (≈ 95.4 µg/mL); in experiment [2] (clinical strain 2019XJ06), 100 µM (≈ 95.4 µg/mL); in experiment [3] (clinical strain 2019XJ25), 100 µM (≈ 95.4 µg/mL); against E.coli (ATCC 25922) (ATCC 25922), 100 µM (≈ 95.4 µg/mL); in experiment [4] (florfenicol resistant clinical strain 2017XJ30) it was 100 µM (≈ 95.4 µg/mL). Further, the MIC in [5] (clinical strain 2018XJ108) is 100 µM (≈ 95.4 µg/mL); in [6] (clinical strain 2018XJ105), 100 µM (≈ 95.4 µg/mL); in [7] (clinical strain 2018XJ30), 100 µM (≈ 95.4 µg/mL); in experiment [8] it was 25 to 100 µM; with MRSA (ATCC 43300) (ATCC 43300), 50 µM (≈ 47.7 µg/mL).
